We go through 11 molecules from publication PMC8537501 (2021).

The test system of assay [1] is c-myc (DNA, G4) TGGGGAGGGTGGGGAGGGTGGGGAAGGTGGGGA
Put plainly: fluorescence titration. Conditions: 5 mM KCl.

For assay [2], the system named is ds27 (DNA, hairpin) CGCGAATTCGCGTTTCGCGAATTCGCG
Briefly: fluorescence titration. The following applies: 5 mM KCl.

Assay [3] concerns tel26 (DNA, G4) TTAGGGTTAGGGTTAGGGTTAGGGTT
Put plainly: fluorescence titration. The following applies: 5 mM KCl.

Assay [4] has as its system c-myc (DNA, G4) TGGGGAGGGTGGGGAGGGTGGGGAAGGTGGGGA
Briefly: CD melting, 262 nm. The following applies: 0.5 mM KCl; 0.5 mM phosphate, 5% DMSO, pH 7; 2 μM DNA, 20 μM ligand.

The test system of assay [5] is CPG-c-myc (DNA, G4) TGGGGAGGGTGGGGAGGGTGGGGAAGGTGGGGA
Put plainly: G4-CPG affinity chromatography. Conditions: 50 mM KCl; 10% DMSO, 10% ethanol; 600 μM ligand.

For assay [6], the system named is CPG-tel26 (DNA, G4) TTAGGGTTAGGGTTAGGGTTAGGGTT
Put plainly: G4-CPG affinity chromatography. The following applies: 50 mM KCl; 10% DMSO, 10% ethanol; 600 μM ligand.

For assay [7], the system named is ds27 (DNA, hairpin) CGCGAATTCGCGTTTCGCGAATTCGCG
Put plainly: CD melting, 251 nm. The following applies: 5 mM KCl; 5 mM phosphate, 5% DMSO, pH 7; 2 μM DNA, 20 μM ligand.

Assay [8] has as its system tel26 (DNA, G4) TTAGGGTTAGGGTTAGGGTTAGGGTT
Put plainly: CD melting, 290 nm. The following applies: 5 mM KCl; 5 mM phosphate, 5% DMSO, pH 7; 2 μM DNA, 20 μM ligand.

Assay [9] has as its system CPG-ds27 (DNA, hairpin) CGCGAATTCGCGTTTCGCGAATTCGCG
Briefly: G4-CPG affinity chromatography. The following applies: 50 mM KCl; 10% DMSO, 10% ethanol; 600 μM ligand.

Where [10] appears, read: 5 mM phosphate, 5% DMSO, pH 7, 20 °C, 2 μM ligand, independent equivalent-sites model.

In the case of `COc1ccc2c(c1O)-c1c3c(cc4c1[C@H](C2)N(C)CC4)OCO3`, the Kb was 1.1 (±0.4) × 10^6 M^-1 in assay [1] (setting [10]), 1.2 (±0.6) × 10^6 M^-1 in assay [2] (setting [10]) and 1.0 (±0.4) × 10^6 M^-1 in assay [3] (setting [10]). In addition, the ΔTm entry in [4] is “+9 °C”.

Regarding `CC(C)=CCC1=C(O)c2c(cc3cc(C)cc(O)c3c2O)C(CC=C(C)C)(CC=C(C)C)C1=O`, the binding result in [5] and in [6] was “weak” in each case.

With `CC[C@H]1C[C@@H]2C[C@H]3c4[nH]c5ccc(OC)cc5c4CCN(C2)[C@@H]13`, the figures for the ΔTm in assay [7] and in [8] were 0 °C and “+2 °C”, respectively. Besides, the Kb in assay [1] was 3.9 (±0.7) × 10^5 M^-1; in assay [2] it was 3.7 (±0.7) × 10^5 M^-1; in [3] it was 4.1 (±0.8) × 10^5 M^-1.

With `CC[C@H]1CN2CCc3cc(OC)c(OC)cc3[C@@H]2C[C@@H]1C[C@H]1NCCc2cc(OC)c(OC)cc21`, the binding entry in assay [5], in assay [9] and in assay [6] was “yes” throughout.

As to `CC(C)(O)CC[C@@H](O)[C@](C)(O)[C@H]1CC[C@@]2(O)C3=CC(=O)[C@@H]4C[C@@H](O)[C@@H](O)C[C@]4(C)[C@H]3CC[C@]12C`, the binding entry in assay [6] is listed as “weak”.

For the molecule `CC(C)=CCc1c(C)cc2cc3c(c(O)c2c1O)C(=O)C=C(O)C3(CC=C(C)C)CC=C(CO)CO` (stereo not shown), the binding entry in [5] and in assay [6] was “weak” each time.

`COC(=O)[C@@H]1[C@H]2C[C@H]3c4[nH]c5ccccc5c4CCN3C[C@@H]2CC[C@@H]1O`: the binding result in assay [5] is recorded as “weak”.

As to `CN1CC[C@]23C(=O)C[C@H]4C(=CCO[C@H]5CC(=O)N(c6c(O)cccc62)[C@H]3[C@H]54)C1`, the binding result in assay [5] and in [6] was “yes” in each case. For the same molecule, the ΔTm in assay [7] was −3 °C; in assay [8] it was 0 °C; in [4] it was “+5 °C”.

`CC1=C2C(=O)[C@H]3[C@@H](CC=C4C[C@@H](O)CC[C@@]43C)[C@@H]2CC[C@]12O[C@@H]1C[C@H](C)CN[C@H]1[C@H]2C`: the binding entry in assay [5], in [9] and in [6] was “yes” in each case.

On to `COc1cc2cc3c(c(O)c2c2c1C=CC(C)(C)O2)C(=O)CC(C)(O)C3` (stereo not shown), for which the binding entry in assay [5] and in assay [6] was “weak” throughout.

Turning to `CN1Cc2c(ccc3c2OCO3)[C@@H]2[C@H]1c1cc3c(cc1C[C@@H]2O)OCO3`, the figures for the ΔTm in [7], in assay [8] and in assay [4] were −1 °C, “+4 °C” and “+13 °C”, respectively. Besides, the binding result in [1] (5 mM phosphate, 5% DMSO, pH 7, 20 °C, 2 μM ligand, enhancement then quenching, not fitted) is “yes”; in assay [2] (5 mM phosphate, 5% DMSO, pH 7, 20 °C, 2 μM ligand, DNA up to 10 μM) it was “no”; in assay [3] (5 mM phosphate, 5% DMSO, pH 7, 20 °C, 2 μM ligand, quenching, not fitted), “yes”.

As usually defined, the ΔTm is the shift of the melting midpoint relative to a reference.
